Measured values from article PMC6982951, “The N’-Substituted Derivatives of 5-Chloro-3-Methylisothiazole-4-Carboxylic Acid Hydrazide with Antiproliferative Activity” (Molecules, 2019).
“And” between values parts separate entries of the source, which are not always exact repeats. Identical values can stand only once. “Also recorded” adds a separate entry of the source. Like-named read-outs stand apart in the source and are kept apart here.

Experiments:
[1] = system: LoVo (human colon adenocarcinoma, sensitive); assay: SRB antiproliferative assay, 72 h exposure; format: cell-based; conditions: for IC50: read-out: IC50 ± SD LoVo
Text: (§1) Established in vitro, human cell lines MV4-11 (human biphenotypic B myelomonocytic leukemia), MCF-7 (breast cancer), LoVo (colon cancer), LoVo/DX (colon cancer drug resistant), and MCF-10A (normal breast epithelial) were used. The lines were obtained from the American Type Culture Collection (lines MV4-11, LoVo, LoVo/DX, MCF-10A; Rockville, MD, USA) or from the European Collection of Authenticated Cell Cultures (line MCF-7) and are being maintained at the Hirszfeld Institute of Immunology and Experimental Therapy PAS, Wroclaw, Poland.
(§2) MV4-11 cells were cultured in the RPMI 1640 medium (HIIET PAS, Poland) supplemented with 1.0 mM sodium pyruvate, 2 mM L-glutamine and 10% FBS (all from Sigma Aldrich, Steinheim, Germany), LoVo cells were cultured in the F-12K medium (Life Technologies, Carlsbad, CA, United States) supplemented with 10% FBS (GE Healthcare, Chicago, IL, USA), and LoVo/DX cells were cultured in the mixture of RPMI 1640+OptiMEM (1:1) medium (HIIET PAS) supplemented with 5% FBS (GE Healthcare, Chicago, IL, USA), 2 mM L-glutamine, 1.0 mM sodium pyruvate (all from Sigma Aldrich, Steinheim, Germany) and 0.1 µg/mL doxorubicin chloride (Accord).
(§3) Test solutions of the compounds tested (50 mM) were prepared by dissolving the substances in DMSO (Sigma Aldrich). Afterwards, the tested compounds were diluted in a culture medium to reach the final concentrations at the range of 1-80 μg/mL (250, 125, 25 and 5 μM).
(§4) Twenty-four hours prior to the addition of the tested compounds, the cells were plated in 96-well plates (Sarstedt, Germany) at a density of 1 × 10^4 or 0.75 × 10^4 (MCF-7) cells per well. The assay was performed after 72 h of exposure to varying concentrations of the tested agents. The in vitro cytotoxic effect of all agents was examined using the MTT (MV4-11) or SRB assay. The results were calculated as IC50 (inhibitory concentration 50%) the concentration of tested agent, which is cytotoxic for 50% of the cancer cells. Each compound in each concentration was tested in triplicate in a single experiment, which was repeated 3–4 times.
(§5) This technique was applied for the cytotoxicity screening against cells growing in adherent culture. The details of this technique were described by Skehan et. al.. The cytotoxicity assay was performed after 72 h exposure of the cultured cells to varying concentrations of the tested agents. The cells attached to the plastic were fixed by gently layering cold 50% TCA (trichloroacetic acid, Sigma Aldrich) on the top of the culture medium in each well. The plates were incubated at 4 °C for 1 h and then washed five times with tap water. The cellular material fixed with TCA was stained with 0.1% sulforhodamine B (SRB, Sigma Aldrich) dissolved in 1% acetic acid (POCh) for 30 min. Unbound dye was removed by rinsing (4×) with 1% acetic acid. The protein-bound dye was extracted with 10 mM unbuffered Tris base (Sigma Aldrich) for determination of optical density (at 540 nm) on Synergy H4 photometer (BioTek Instruments). The background optical density was measured in the wells filled with culture medium, without the cells.

[2] = system: MCF-7 (breast adenocarcinoma); assay: SRB antiproliferative assay, 72 h exposure; format: cell-based, human; conditions: MCF-7, SRB; for IC50: read-out: IC50 ± SD MCF-7
Text: as §1
(§6) MCF-7 cells were cultured in the Eagle’s medium (HIIET PAS, Poland) supplemented with 10% FBS, 8 µg/mL insulin, 2 mM L-glutamine and 1% MEM-non essential amino acid solution 100X (all from Sigma Aldrich, Steinheim, Germany). MCF-10A cells were cultured in the HAM’S F-12 with L-glutamine medium (Corning) supplemented with 10% Hors Serum (Gibco), 10 µg/mL insulin, 0.5 µg/mL hydrocortisone, 20 ng/mL EGFh and 0.05 mg/mL Cholera Toxin from Vibrio cholerae (all from Sigma Aldrich, Steinheim, Germany). All culture mediums were supplemented with 100 units/mL penicillin (Polfa Tarchomin S.A. Poland), and 100 µg/mL streptomycin (Sigma Aldrich). All cell lines were grown at 37 °C with 5% CO2 humidified atmosphere.
as §3, §4, §5

[3] = system: MV4-11 (human biphenotypic B cell myelomonocytic leukemia); assay: MTT antiproliferative assay, 72 h exposure; format: cell-based; conditions: for IC50 / IC50 ± SD: MV4-11, MTT, 72 h, n.a. = no activity in a concentration of 1–80 μg/mL; for antiproliferative activity (in words): MV4-11 leukemia cells; for inhibition at 80 µg/mL: MV4-11, compound concentration 80 μg/mL, read-out: inhibition of cell proliferation
Text: as §1, §2, §3, §4
This technique was applied for cells growing in suspension culture. An assay was performed after 72 h exposure to varying concentrations of the tested agents. For the last 4 h of incubation, 20 µL of MTT solution was added to each well (MTT: 3-(4,5-dimethylthiazol-2-yl)-2,5-diphenyl tetrazolium bromide; stock solution: 5 mg/mL, Sigma Aldrich). When the incubation time was completed, 80 µL of the lysing mixture was added to each well (lysing mixture: 225 mL dimethylformamide, POCh, Gliwice, Poland, 67.5 g sodium dodecyl sulfate, Sigma Aldrich, and 275 mL of distilled water). After 24 h, when formazan crystals had been dissolved, the optical densities of the samples were read on Synergy H4 photometer (BioTek Instruments, USA) at 570 nm wavelength. The background optical density was measured in the wells filled with culture medium, without the cells.

[4] = system: LoVo/DX (human colon adenocarcinoma, resistant to doxorubicin); assay: SRB antiproliferative assay, 72 h exposure; resistance index; format: cell-based; conditions: for RI (resistance index): IC50 against LoVo/DX divided by IC50 against LoVo; for IC50 ± SD LoVoDX / IC50: LoVo/DX, SRB, 72 h; for IC50: read-out: IC50 ± SD LoVoDX
Text: as §1, §2, §3, §4
The resistance indexes (RI) were calculated by dividing the IC50 values of the compounds tested against the cells of drug resistant cell LoVo/DX line by respective values obtained against the cells of drug sensitive LoVo line (Table 2). According to Harker et al., three categories of the cells could be distinguished: (a) the cells are drug-sensitive if the ratio approaches 0–2; (b) the cells are moderately drug-resistant if the ratio ranges from 2 to 10; (c) the cells are markedly drug-resistant if the ratio is higher than 10.
as §5

[5] = system: MCF-10A (normal non-tumorigenic epithelial cell line derived from mammary gland); assay: SRB cytotoxicity assay, 72 h exposure; format: cell-based, human; conditions: for IC50: read-out: IC50 ± SD MCF-10A; for cytotoxicity against normal MCF-10A cells relative to cancer MCF-7 cells: MCF-10A versus MCF-7
Text: as §1, §6, §3, §4, §5

[6] = MCF-10A normal cells, SRB, 72 h
[7] = Homo sapiens, MCF-10A normal cells, SRB, 72 h

SMILES	RI (resistance index) [4]	antiproliferative activity (in words) [3]	IC50 ([3]; Homo sapiens, MV4-11, 72 h)	IC50 ([1]; Homo sapiens)	IC50 ([2]; Homo sapiens, MCF7, 72 h)	melting point [°C]	IC50 ([4]; Homo sapiens)	IC50 [5, 7]	also measured
N.N.[Cl][Pt][Cl] [Cisplatin, reference compound]	0.49	–	–	–	–	–	–	–	IC50 ± SD LoVo [1]: 1.7 ± 0.8 µg/mL; IC50 [1]: 5.6 ± 2.6 µM; IC50 ± SD MCF-7 [2]: 1.56 ± 0.3 µg/mL; IC50 [2]: 5.2 ± 1 µM; IC50 [3]: 1.28 ± 0.45 µM; IC50 ± SD [3]: 0.38 ± 0.14 µg/mL; IC50 ± SD LoVoDX [4]: 0.84 ± 0.17 µg/mL; IC50 [4]: 2.8 ± 0.6 µM; IC50 ± SD MCF-10A [5, 6]: 2.9 ± 0.4 µg/mL; IC50 [5, 6]: 9.7 ± 1.4 µM
Cc1nsc(Cl)c1C(=O)O [Compound 1, 5-Chloro-3-methylisothiazole-4-carboxylic acid]	–	no antiproliferative activity; also recorded: devoid of any anticancer activity	–	–	–	–	–	–	–
Cc1nsc(Cl)c1C(=O)NN [Compound 2, 5-Chloro-3-Methylisothiazole-4-Carbohydrazide]	–	very poor activity; also recorded: devoid of any anticancer activity	> 80 µg/mL	–	–	–	–	–	inhibition at 80 µg/mL ([3]; Homo sapiens): 45%
Cc1nsc(Cl)c1C(=O)N/N=C/C=C/c1ccccc1 [Compound 3, 5-Chloro-N’-[(1E,2E)-3-phenylprop-2-en-1-ylidene]-3-methylisothiazole-4-carbohydrazide]	1.37	–	4.4 µg/mL and 14 µM	25 ± 5.5 µM	39.3 ± 6.3 µM	180 to 181	34.2 ± 2.3 µM	20.9 µg/mL and 68.6 µM	IC50 ± SD LoVo [1]: 7.64 ± 1.7 µg/mL; IC50 ± SD MCF-7 [2]: 12 ± 1.9 µg/mL; IC50 ± SD [3]: 4.3 ± 1.9 µg/mL; IC50 ± SD LoVoDX [4]: 10.4 ± 0.7 µg/mL; activity (IC50 value) towards MCF-10A normal cell line relative to cancer cells ([5]; MCF-10A versus cancer cells): almost two times lower activity
Cc1nsc(Cl)c1C(=O)N/N=C/c1cccc(Cl)c1 [Compound 4, 5-Chloro-N’-[(E)-(3-chlorophenyl)methylidene]-3-methylisothiazole-4-carbohydrazide]	0.81	–	15.2 µg/mL and 48.4 µM	59.4 ± 3.4 µM	48.6 ± 5.7 µM	174 to 175	47.9 ± 3.7 µM	24.6 µg/mL and 78.5 µM	IC50 ± SD LoVo [1]: 18.6 ± 1.1 µg/mL; IC50 ± SD MCF-7 [2]: 15.2 ± 1.8 µg/mL; IC50 ± SD LoVoDX [4]: 15 ± 1.1 µg/mL
Cc1nsc(Cl)c1C(=O)N/N=C/c1cccc([N+](=O)[O-])c1 [Compound 5, 5-Chloro-N’-[(E)-(3-nitrophenyl)methylidene]-3-methylisothiazole-4-carbohydrazide]	1.29	–	18.7 µg/mL and 57.7 µM	22.7 µg/mL and 73.4 µM	20.1 µg/mL and 65.1 µM	199 to 200	29.2 µg/mL and 94.6 µM	60.8 µg/mL and 197 µM	cytotoxicity against normal MCF-10A cells relative to cancer MCF-7 cells [5]: about three times less cytotoxic
CCc1ccc(/C=N/NC(=O)c2c(C)nsc2Cl)cc1 [Compound 6, 5-Chloro-N’-[(E)-(4-ethylphenyl)methylidene]-3-methylisothiazole-4-carbohydrazide]	0.91	–	21.3 µg/mL and 69.4 µM	31.7 µg/mL and 97.7 µM	13.9 µg/mL and 42.9 µM	152 to 154	28.8 µg/mL and 88.8 µM	40.6 µg/mL and 125 µM	–
COc1cccc(/C=N/NC(=O)c2c(C)nsc2Cl)c1 [Compound 7, 5-Chloro-N’-[(E)-(3-methoxyphenyl)methylidene]-3-methylisothiazole-4-carbohydrazide]	0.72	–	22.4 µg/mL and 72.3 µM	27.8 µg/mL and 90.5 µM	17.8 µg/mL and 58 µM	139 to 140	20 µg/mL and 65 µM	56 µg/mL and 182 µM	antiproliferative activity relative to phenyl derivative 8 ([3]; fold higher than compound 8): 1.5–2 times
Cc1nsc(Cl)c1C(=O)N/N=C/c1ccccc1 [Compound 8, 5-Chloro-N’-[(E)-phenylmethylidene]-3-methylisothiazole-4-carbohydrazide]	–	–	36.6 µg/mL and 131 µM	–	–	164 to 165	–	–	cytotoxicity against normal MCF-10A cells relative to cancer MCF-7 cells [5]: about three times less cytotoxic
Cc1ccc(/C=N/NC(=O)c2c(C)nsc2Cl)c(C)c1 [Compound 9, 5-Chloro-N’-[(E)-(2,4-dimethylphenyl)methylidene]-3-methylisothiazole-4-carbohydrazide]	–	very poor activity	> 80 µg/mL	–	–	232 to 234	–	–	inhibition at 80 µg/mL ([3]; Homo sapiens): 42.5%; cytotoxicity against normal MCF-10A cells relative to cancer MCF-7 cells [5]: about three times less cytotoxic
Cc1ccccc1/C=N/NC(=O)c1c(C)nsc1Cl [Compound 10, 5-Chloro-N’-[(E)-(2-methylphenyl)methylidene]-3-methylisothiazole-4-carbohydrazide]	–	very poor activity	> 80 µg/mL	–	–	226 to 228	–	–	inhibition at 80 µg/mL ([3]; Homo sapiens): 47%
Cc1nsc(Cl)c1C(=O)N/N=C/c1ccccc1Cl [Compound 11, 5-Chloro-N’-[(E)-(2-chlorophenyl)methylidene]-3-methylisothiazole-4-carbohydrazide]	–	no antiproliferative activity	–	–	–	232 to 233	–	–	–
